Experimental data published in patent US20060069132A1, “Azolecarboxamide herbicides” (priority 2004, published 2006).

What was measured:
ducksalad = assay: Test B flooded paddy test; type: in vivo, Heteranthera limosa; details: 1000 g ai/ha, visual rating, scale 0 to 100 (0 no effect, 100 complete control), 13 to 15 days
Summary of the method: (§1)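 Greenhouse test; postemergence application to plants at 1–4 leaves (2–18 cm); paddy species at 2 leaves; evaluated visually vs controls at 13–15 days; scale 0–100 (100 = complete control).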

velvetleaf [1] = assay: Test B pre-/postemergence herbicide test; type: in vivo, Abutilon theophrasti
Summary of the method: (§2)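 Plants compared with untreated controls 13–15 days post-treatment and given a visual 0–100 injury score. Applications: preemergence to seeds; postemergence at 1- to 4-leaf (2–18 cm); paddy species flooded, 2-leaf stage. Vehicle non-phytotoxic, surfactant included.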

blackgrass = assay: Test B postemergence herbicide test; type: in vivo, Alopecurus myosuroides; details: scale 0 (no effect) to 100 (complete control)
Summary of the method: as §1

velvetleaf [2] = assay: Test A pre-/postemergence herbicide test; type: in vivo, Abutilon theophrasti; details: for Velvetleaf plant response rating: Preemergence
Summary of the method: (§3)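 Greenhouse injury scoring (0–100, complete control = 100) at approximately ten days follows simultaneous pre- and postemergence application. Soil received a directed spray after seeding; seedlings of 2–10 cm at the one- to two-leaf stage were sprayed to runoff.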

large crabgrass [3] = assay: Test A pre-/postemergence herbicide test; type: in vivo, Digitaria sanguinalis; details: for Plant response rating, Crabgrass, Large: Postemergence; for Crabgrass, Large plant response rating: Preemergence
Summary of the method: as §3

rice [4] = assay: Test B flooded paddy test; type: in vivo, Oryza sativa; details: 1000 g ai/ha, visual rating, scale 0 to 100 (0 no effect, 100 complete control), 13 to 15 days
Summary of the method: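 Formulated test chemicals went onto postemergence plants measuring 2 to 18 cm, at one to four leaves. For the paddy assay, species had reached two leaves. Scoring took place 13–15 days later by eye, relative to untreated plants, using 0 for no effect up to 100 for full control.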

cocklebur = assay: Test B pre-/postemergence herbicide test; type: in vivo, Xanthium strumarium
Summary of the method: (§4)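 Greenhouse pot assay with simultaneous preemergence (treated seed) and postemergence (2–18 cm seedlings) applications of surfactant-containing, non-phytotoxic solvent formulations. Response scored visually 13–15 days later on a 0–100 scale, 100 meaning complete control.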

pigweed = assay: Test B pre-/postemergence herbicide test; type: in vivo, Amaranthus retroflexus
Summary of the method: as §2

lambsquarters = assay: Test B pre-/postemergence herbicide test; type: in vivo, Chenopodium album
Summary of the method: as §2

corn = assay: Test B pre-/postemergence herbicide test; type: in vivo, Zea mays
Summary of the method: as §2

giant foxtail [5] = assay: Test B pre-/postemergence herbicide test; type: in vivo, Setaria faberi
Summary of the method: as §2

wild oat = assay: Test B postemergence herbicide test; type: in vivo, Avena fatua; details: scale 0 (no effect) to 100 (complete control)
Summary of the method: (§5)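 Scale 0–100: zero equals no visible effect, 100 complete control, judged by eye relative to controls. Timing: 13 to 15 days in greenhouse post-treatment. Growth stage at spraying: two leaves (paddy) or one to four leaves, 2–18 cm (postemergence).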

rice [6] = assay: Test B pre-/postemergence herbicide test; type: in vivo, Oryza sativa
Summary of the method: as §4

barnyardgrass [7] = assay: Test B pre-/postemergence herbicide test; type: in vivo, Echinochloa crus-galli
Summary of the method: as §4

redroot pigweed = assay: Test A pre-/postemergence herbicide test; type: in vivo, Amaranthus retroflexus; details: for Plant response rating, Pigweed: Postemergence; for Pigweed plant response rating: Preemergence
Summary of the method: as §3

Surinam grass = assay: Test B pre-/postemergence herbicide test; type: in vivo, Urochloa decumbens
Summary of the method: as §2

morningglory [8] = assay: Test B pre-/postemergence herbicide test; type: in vivo, Ipomoea coccinea
Summary of the method: as §4

barnyardgrass [9] = assay: Test A pre-/postemergence herbicide test; type: in vivo, Echinochloa crus-galli; details: for Plant response rating, Barnyardgrass: Postemergence; for Barnyardgrass plant response rating: Preemergence
Summary of the method: as §3

barnyardgrass [10] = assay: Test B flooded paddy test; type: in vivo, Echinochloa crus-galli; details: 1000 g ai/ha, visual rating, scale 0 to 100 (0 no effect, 100 complete control), 13 to 15 days
Summary of the method: as §1

large crabgrass [11] = assay: Test B pre-/postemergence herbicide test; type: in vivo, Digitaria sanguinalis
Summary of the method: as §2

[12] = tested on: small flower umbrella sedge; assay: Test B flooded paddy test; type: in vivo, Cyperus difformis; details: 1000 g ai/ha, visual rating, scale 0 to 100 (0 no effect, 100 complete control), 13 to 15 days
Summary of the method: as §1

wheat = assay: Test B postemergence herbicide test; type: in vivo, Triticum aestivum; set-up: key to Wheat plant response rating: 0 = no effect, 100 = complete control; details: scale 0 (no effect) to 100 (complete control)
Summary of the method: as §5

morningglory [13] = assay: Test A pre-/postemergence herbicide test; type: in vivo, Ipomoea spp.; details: for Plant response rating, Morningglory: Postemergence; for Morningglory plant response rating: Preemergence
Summary of the method: as §3

giant foxtail [14] = assay: Test A pre-/postemergence herbicide test; type: in vivo, Setaria faberi; details: for Plant response rating, Foxtail, Giant: Postemergence; for Foxtail, Giant plant response rating: Preemergence
Summary of the method: as §3

[15] = Postemergence, 500 g ai/ha, visual rating after 13 to 15 days, scale 0 (no effect) to 100 (complete control)
[16] = Preemergence, 500 g ai/ha, scale 0 to 100
[17] = postemergence, 125 g ai/ha, visual rating, scale 0 (no effect) to 100 (complete control)
[18] = preemergence, 125 g ai/ha, 0 to 100 scale, 0 is no effect, 100 is complete control
[19] = Postemergence, 500 g ai/ha, visual rating after 13 to 15 days
[20] = postemergence, 125 g ai/ha, visual rating
[21] = 500 g ai/ha, visual rating, 0 to 100 scale (0 no effect, 100 complete control)
[22] = 2000 g ai/ha, 0 to 100 scale, 0 no effect, 100 complete control
[23] = 500 g ai/ha, 0 to 100 scale, 0 no effect, 100 complete control

For `CCN(CC)C(=O)c1cc(NC(=O)c2cc(C(C)(C)C)nn2CC)ccc1F` [Compound 59], the “Ducksalad plant response rating” value (ducksalad) was 0, the “Plant response rating, Velvetleaf” value (velvetleaf [1]; [15]) was 20 and the “Velvetleaf plant response rating” value (velvetleaf [1]; [16]) was 40. The “Velvetleaf plant response rating” value (velvetleaf [1]; [17]) was 20, the “Plant response rating, Velvetleaf” value (velvetleaf [1]; [18]) was 10 and the “Plant response rating, Blackgrass” value (blackgrass; [19]) was 0. For the same molecule, the “Blackgrass plant response rating” value (blackgrass; [20]) was 0, the “Plant response rating, Velvetleaf” value (velvetleaf [2]; Postemergence, 2000 g ai/ha, 0 to 100 scale, 0 no effect, 100 complete control) was 20 and the “Velvetleaf plant response rating” value (velvetleaf [2]; [21]) was 15. For the same molecule, the “Velvetleaf plant response rating” value (velvetleaf [2]; [22]) was 55, the “Plant response rating, Crabgrass, Large” value (large crabgrass [3]; [23]) was 15 and the “Plant response rating, Crabgrass, Large” value (large crabgrass [3]; [22]) was 20. For the same molecule, the “Crabgrass, Large plant response rating” value (large crabgrass [3]; [21]) was 25, the “Crabgrass, Large plant response rating” value (large crabgrass [3]; [22]) was 45 and the “Rice plant response rating” value (rice [4]) was 0. For the same molecule, the “Plant response rating, Cocklebur” value (cocklebur; [15]) was 40, the “Cocklebur plant response rating” value (cocklebur; [16]) was 0 and the “Cocklebur plant response rating” value (cocklebur; [17]) was 10. The “Plant response rating, Cocklebur” value (cocklebur; [18]) was 0, the “Plant response rating, Pigweed” value (pigweed; [15]) was 80 and the “Pigweed plant response rating” value (pigweed; [16]) was 100. The “Pigweed plant response rating” value (pigweed; [17]) was 70, the “Plant response rating, Pigweed” value (pigweed; [18]) was 100 and the “Plant response rating, Lambsquarters” value (lambsquarters; [15]) was 90. For the same molecule, the “Lambsquarters plant response rating” value (lambsquarters; [16]) was 100, the “Lambsquarters plant response rating” value (lambsquarters; [17]) was 80 and the “Plant response rating, Lambsquarters” value (lambsquarters; [18]) was 90. For the same molecule, the “Plant response rating, Corn” value (corn; [15]) was 20, the “Corn plant response rating” value (corn; [16]) was 0 and the “Corn plant response rating” value (corn; [17]) was 10. For the same molecule, the “Plant response rating, Corn” value (corn; [18]) was 0, the “Plant response rating, Foxtail, Giant” value (giant foxtail [5]; [15]) was 20 and the “Foxtail, Giant plant response rating” value (giant foxtail [5]; [16]) was 40. The “Foxtail, Giant plant response rating” value (giant foxtail [5]; [17]) was 0, the “Plant response rating, Foxtail, Giant” value (giant foxtail [5]; [18]) was 0 and the “Plant response rating, Oat, Wild” value (wild oat; [19]) was 20. For the same molecule, the “Oat, Wild plant response rating” value (wild oat; [20]) was 10, the “Rice plant response rating” value (rice [6]; [16]) was 0 and the “Plant response rating, Rice” value (rice [6]; [18]) was 0. For the same molecule, the “Plant response rating, Barnyardgrass” value (barnyardgrass [7]; [15]) was 20, the “Barnyardgrass plant response rating” value (barnyardgrass [7]; [16]) was 70 and the “Barnyardgrass plant response rating” value (barnyardgrass [7]; [17]) was 0. The “Plant response rating, Barnyardgrass” value (barnyardgrass [7]; [18]) was 10, the “Plant response rating, Pigweed” value (redroot pigweed; [23]) was 40 and the “Plant response rating, Pigweed” value (redroot pigweed; [22]) was 75. For the same molecule, the “Pigweed plant response rating” value (redroot pigweed; [21]) was 90, the “Pigweed plant response rating” value (redroot pigweed; [22]) was 100 and the “Plant response rating, Surinam Grass” value (Surinam grass; [15]) was 20. For the same molecule, the “Surinam Grass plant response rating” value (Surinam grass; [16]) was 10, the “Surinam Grass plant response rating” value (Surinam grass; [17]) was 10 and the “Plant response rating, Surinam Grass” value (Surinam grass; [18]) was 0. For the same molecule, the “Plant response rating, Morningglory” value (morningglory [8]; [15]) was 20, the “Morningglory plant response rating” value (morningglory [8]; [16]) was 10 and the “Morningglory plant response rating” value (morningglory [8]; [17]) was 20. For the same molecule, the “Plant response rating, Morningglory” value (morningglory [8]; [18]) was 0, the “Plant response rating, Barnyardgrass” value (barnyardgrass [9]; [23]) was 20 and the “Plant response rating, Barnyardgrass” value (barnyardgrass [9]; [22]) was 30. The “Barnyardgrass plant response rating” value (barnyardgrass [9]; [21]) was 25, the “Barnyardgrass plant response rating” value (barnyardgrass [9]; [22]) was 60 and the “Barnyardgrass plant response rating” value (barnyardgrass [10]) was 0. For the same molecule, the “Plant response rating, Crabgrass, Large” value (large crabgrass [11]; [15]) was 20, the “Crabgrass, Large plant response rating” value (large crabgrass [11]; [16]) was 20 and the “Crabgrass, Large plant response rating” value (large crabgrass [11]; [17]) was 10. For the same molecule, the “Plant response rating, Crabgrass, Large” value (large crabgrass [11]; [18]) was 10, the “Sedge, Umbrella plant response rating” value [12] was 0 and the “Plant response rating, Wheat” value (wheat; [19]) was 10. The “Wheat plant response rating” value (wheat; [20]) was 0, the “Plant response rating, Morningglory” value (morningglory [13]; [23]) was 10 and the “Plant response rating, Morningglory” value (morningglory [13]; [22]) was 10. The “Morningglory plant response rating” value (morningglory [13]; [21]) was 10, the “Morningglory plant response rating” value (morningglory [13]; [22]) was 40 and the “Plant response rating, Foxtail, Giant” value (giant foxtail [14]; [23]) was 15. The “Plant response rating, Foxtail, Giant” value (giant foxtail [14]; [22]) was 20, the “Foxtail, Giant plant response rating” value (giant foxtail [14]; [21]) was 5 and the “Foxtail, Giant plant response rating” value (giant foxtail [14]; [22]) was 65.
